The values that follow come from patent US20060265776A1, “Viability” (priority 2003, published 2006).

Entries after “also recorded” stand apart in the source; their conditions may differ.

The test system of series [1] is Arabidopsis plants. The following applies: adding exogenous ATP; cited from earlier work.
Series [2] concerns Black Mexican sweet corn cells. In words: Cell viability of corn suspension cells. The format is cell-based, Zea mays. The following applies: 1 mM ATP, 1 mM AMP-PCP, 100 units/mL apyrase, 200 units/mL hexokinase; 100 mM glucose in culture.
The subject of another series is tobacco leaves. In words: Leaf infiltration, tobacco. The format is in vivo, Nicotiana tabacum. Particulars: for local tissue death after infiltration of tobacco leaves: 1 mM AMP-PCP, 1 mM ATP, apyrase, hexokinase plus glucose; for state of tobacco plant after treatment of a leaf: 5 mM AMP-PCP or equivalent amount of ATP, after 4 days. On the procedure: (§1) Tobacco (Nicotiana tabacum), Arabidopsis, and bean (Phaseolus vulgaris) plants were sown in soil and raised in a growth cabinet with a 16-hour photoperiod at 20° C. and 8 hours of darkness at 15° C. The relative humidity was maintained at 60% and the photon flux density was 250 μmolm^−2 s^−1. […] Only the cotyledons of bean plants were treated. The abaxial surface of a small zone of leaf tissue was treated by infiltrating the apoplast with the solution using a syringe and hypodermic needle. The three test solutions had the following concentrations of either: 0.5 units/μL apyrase, 1.85 units/μL hexokinase plus 100 mM glucose, or 1-5 mM AMP-PCP (pH 6.5).

The test system of series [3] is Arabidopsis thaliana cell suspension cultures. In kind it is cell-based. On the procedure:
A. thaliana cell cultures were grown as described in example 1. Aliquots of the cell suspension (1.5 mL) were treated with a final concentration of 0, 20, 50, or 100 units/mL of apyrase. […] The dead cells had become buoyant and adhered to the walls of the vials, forming a ring just above the edge of the swirling medium. The ring of cells was sometimes dislodged and fell into the medium, resulting in apyrase-treated cultures having flakes of dead cells at the bottom of the vials.
To quantify the effect of apyrase on cell viability, the ability of the cells to grow and multiply subsequent to treatment was measured after diluting the cultures by over 30 times in fresh medium not containing any additives. This was achieved by transferring the cells treated for 3 days to 50 mL of fresh growth medium and allowing them to grow for a further 4 days. At the end of this period, triplicate 1 mL aliquots were sampled from the cultures and the volume of the cells was measured and expressed as a percentage of the culture volume. The method used to determine the packed cell volume was as follows: 1 mL cell culture aliquots were placed in 1.5 mL microfuge tubes and the cells gently compacted by centrifuging (1000 rpm., 10 minutes) in a swing-out rotor (Grundrotor 11030; Sigma laborzentrifugen GmbH, Oestrode, Germany). The level of the cells was marked on the wall of the tube and the volume of cells determined by measuring the volume of water needed to fill the tube to the marked level. The packed cell volume was expressed as the volume occupied by cells as a percentage of 1000 μL.
In each case the error bars represent the standard deviation.

Series [4] has as its system Arabidopsis cell cultures. In words: MTT assay of cell viability after elicitor or bacteria with or without ATP. In kind it is cell-based. The following applies: 1 mM ATP, 24 hours. For orientation: Tetrazolium assays rely on reduction of a dye to a coloured formazan, in cell work by metabolically active cells.
The subject of series [5] is Tobacco (Nicotiana tabacum), Arabidopsis, and bean (Phaseolus vulgaris) plants. In words: Leaf infiltration of extracellular ATP depletion systems, whole plants. In kind it is in vivo. The following applies: 0.5 units/μL apyrase, 1.85 units/μL hexokinase plus 100 mM glucose, 1-5 mM AMP-PCP (pH 6.5); ATP (pH 6.5). As to the method:
as §1
The concentrations used were the same as defined above unless stated otherwise.

In series [6] the test system is Arabidopsis cell cultures. The series is described as follows: H2O2 accumulation after elicitor treatment. The following applies: exogenous ATP with elicitor. The format is cell-based.
The test system of series [7] is Arabidopsis plants. The series is described as follows: Foliar spray application, herbicidal activity. The format is in vivo. Particulars: 2 mL spray, 5 mM active ingredient, 0.02% (v/v) Tween 20, pH 6.7. As to the method: The inventors tested a range of compounds for their potential herbicidal activity. These consisted of several nonhydrolysable ATP analogues as well as nonhydrolysable analogues of GTP, another nucleotide triphosphate. Arabidopsis plants were grown hydroponically for 2 weeks as described in Example 6B. These plants, still attached to the polyurethane foam discs, were then transferred to phytatrays that contained sand. Plants grown under high humidity conditions, achieved in these enclosed phytatrays, tend to have poor or no development of the waxy cuticle and so are ideal for spray application of solutions with the aid of common surfactants like Tween 20. The plants in each tray were sprayed with 2 mL of an aqueous solution adjusted to pH 6.7 with KOH and containing 5 mM active ingredient and 0.02% (v/v) Tween 20. Control plants were sprayed with the same solution containing only Tween 20 but no active ingredient.

A further series concerns tobacco plants. In words: Foliar spray on soil-grown tobacco plants. Particulars: 5 mM in 0.02% Tween 20, 2 mL spray, three days after treatment.
Series [8] deals with Arabidopsis thaliana cell suspension cultures. The series is described as follows: Viability staining with fluorescein diacetate and propidium iodide. The format is cell-based. The following applies: apyrase-treated cultures, 3 days. As to the method:
The inventors decided to use viability staining to confirm cell death in these cell cultures. To achieve this, […] aliquots were removed from the cultures and the cells resuspended in 0.2M CaCl2 after removal of the growth medium. The aliquots were doubly-stained by incubating for 5 minutes with a final concentration of 25 μg/mL fluorescein diacetate [0.5% (w/v) stock solution in acetone] and 50 μg/mL propidium iodide [10 mg/mL stock solution in phosphate-buffered saline pH 7.4]. […] The viable cells had also excluded propidium iodide, which is non-permeative and can only cross membranes of dead or dying cells. Dead cells had taken up propidium iodide, which binds to DNA, resulting in nuclei emitting a very intense red fluorescence.

The next series deals with bean plants. In words: Leaf infiltration, bean. The format is in vivo, Phaseolus vulgaris. The following applies: apyrase, hexokinase; 100 mM glucose. On the procedure: as §1

On to `Nc1ncnc2c1ncn2[C@@H]1O[C@H](COP(=O)(O)OP(=O)(O)OP(=O)(O)O)[C@@H](O)[C@H]1O` [ATP], for which the “resistance of plants to xenobiotics” value in the series with Arabidopsis plants [1] is “decreased the resistance of plants to xenobiotics”. Further, the “viability of corn cells” value in series [2] is given as “did not affect the viability of the cells”. Also, in the series with tobacco leaves, the “local tissue death after infiltration of tobacco leaves” value was “did not” and the “state of tobacco plant after treatment of a leaf” value is “remained entirely healthy”. Moreover, the “cell viability / cell death, in words” value in series [3] (ADP 1 mM, AMP 1 mM, ATP 1 mM, glucose-6-phosphate 100 mM, boiled apyrase 50 units/ml, boiled hexokinase 200 units/ml with 100 mM glucose) was “did not cause death of treated cells”. Also, in [4], the “effect of exogenous ATP on reduction in cell viability caused by Ps. syringae or Fusarium elicitor” value is on record as “substantially negated”. For the same compound, the “necrotic lesions after local leaf infiltration” value in [5] is “did not result in cell death”. Further, the H2O2 accumulation result in series [6] is on record as “failed to prevent H2O2 accumulation”. In the series with Arabidopsis plants [7], the “Effects on Arabidopsis plants after foliar application” value is “remained healthy and None”. Besides, the “state of tobacco plants” value in the series on tobacco plants is “unaffected”.

Turning to apyrase, in series [8], the “dead cells by viability staining” value is reported as “significantly high proportion of cells in the apyrase-treated cell cultures was dead”. Besides, the “viability of corn cells” value in series [2] was “caused significant cell death”. In addition, in the series on tobacco leaves, the “local tissue death after infiltration of tobacco leaves” value is “development of localised necrotic lesions” and the “state of tobacco plant after treatment of a leaf” value is recorded as “Comparable results”. Also, in series [3], the loss in viability entry is listed as “over 80%”. For the same compound, in series [3] (20, 50 or 100 units/mL apyrase, incubated for 3 days), the “cell death seen in cultures” value is reported as “showed a significant frequency of cell death”. Further, in series [3] (apyrase 0-100 units/mL, hexokinase 0-200 units/mL with 100 mM glucose, AMP-PCP 0-1.5 mM), the “cell viability with increasing concentration (dose-response), in words” value is reported as “progressive decrease in cell viability”. Further, in the series on bean plants, the “necrotic lesions on bean leaves” value is recorded as “development of necrotic lesions on leaves”. The “necrotic lesions after local leaf infiltration” value in [5] is “development of necrotic lesions in the area where the application was made within 2 days of treatment; also recorded: localised necrotic lesions”.
